Measured values reported in ChEMBL document CHEMBL5032500, “Adenosine A2AR/A1R Antagonists Enabling Additional H3R Antagonism for the Treatment of Parkinson's Disease” (J Med Chem, 2021).
The source made the active and inactive calls. The rule behind the calls is not given here.

Experiments:
[1] = target: T1, Adenosine receptor A2a (Homo sapiens, UniProt P29274); assay: Displacement of [3H]MSX-2 from human recombinant adenosine A2A receptor expressed in CHO cells by liquid scintillation counting analysis; format: cell-based
T1 sequence (P29274 whole entry): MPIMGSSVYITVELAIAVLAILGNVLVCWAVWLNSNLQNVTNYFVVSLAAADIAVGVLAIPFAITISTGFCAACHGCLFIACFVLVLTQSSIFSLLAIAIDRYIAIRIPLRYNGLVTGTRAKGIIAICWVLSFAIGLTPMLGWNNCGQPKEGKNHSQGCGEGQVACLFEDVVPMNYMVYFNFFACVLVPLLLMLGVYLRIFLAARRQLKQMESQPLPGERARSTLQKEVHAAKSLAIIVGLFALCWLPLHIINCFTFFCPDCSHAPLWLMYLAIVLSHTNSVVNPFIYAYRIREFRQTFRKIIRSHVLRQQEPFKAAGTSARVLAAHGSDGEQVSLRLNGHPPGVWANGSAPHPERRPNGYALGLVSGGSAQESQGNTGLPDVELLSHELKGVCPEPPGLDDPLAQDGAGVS

[2] = target: T2, Adenosine receptor A1 (Homo sapiens, UniProt P30542); assay: Displacement of [3H]CCPA from human recombinant adenosine A1 receptor expressed in CHO cells by liquid scintillation counting analysis; format: cell-based
T2 sequence (P30542 whole entry): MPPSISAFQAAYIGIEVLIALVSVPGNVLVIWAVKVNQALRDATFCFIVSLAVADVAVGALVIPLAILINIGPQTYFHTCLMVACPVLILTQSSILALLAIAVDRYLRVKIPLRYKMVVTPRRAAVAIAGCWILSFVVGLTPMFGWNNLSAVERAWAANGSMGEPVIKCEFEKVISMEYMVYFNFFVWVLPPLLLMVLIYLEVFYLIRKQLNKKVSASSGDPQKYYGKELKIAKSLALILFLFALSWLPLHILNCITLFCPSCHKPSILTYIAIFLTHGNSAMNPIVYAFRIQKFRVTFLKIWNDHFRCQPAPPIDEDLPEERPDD

[3] = target: T3, Adenosine receptor A3 (Homo sapiens, UniProt P0DMS8); assay: Displacement of [3H]PSB-11 from human recombinant adenosine A3 receptor expressed in CHO cells by liquid scintillation counting analysis; format: cell-based
T3 sequence (P0DMS8 whole entry): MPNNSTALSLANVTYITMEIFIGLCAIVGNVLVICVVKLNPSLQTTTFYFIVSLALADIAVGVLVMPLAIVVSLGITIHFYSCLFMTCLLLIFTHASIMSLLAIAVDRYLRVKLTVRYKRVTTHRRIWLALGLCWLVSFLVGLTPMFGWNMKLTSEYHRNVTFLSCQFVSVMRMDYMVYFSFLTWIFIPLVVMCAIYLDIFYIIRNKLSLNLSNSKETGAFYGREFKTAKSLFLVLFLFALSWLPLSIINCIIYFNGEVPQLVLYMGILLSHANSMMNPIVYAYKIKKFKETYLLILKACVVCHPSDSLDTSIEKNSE

[4] = target: T4, Adenosine receptor A2b (Homo sapiens, UniProt P29275); assay: Displacement of [3H]PSB-603 from human recombinant adenosine A2B receptor expressed in CHO cells by liquid scintillation counting analysis; format: cell-based
T4 sequence (P29275 whole entry): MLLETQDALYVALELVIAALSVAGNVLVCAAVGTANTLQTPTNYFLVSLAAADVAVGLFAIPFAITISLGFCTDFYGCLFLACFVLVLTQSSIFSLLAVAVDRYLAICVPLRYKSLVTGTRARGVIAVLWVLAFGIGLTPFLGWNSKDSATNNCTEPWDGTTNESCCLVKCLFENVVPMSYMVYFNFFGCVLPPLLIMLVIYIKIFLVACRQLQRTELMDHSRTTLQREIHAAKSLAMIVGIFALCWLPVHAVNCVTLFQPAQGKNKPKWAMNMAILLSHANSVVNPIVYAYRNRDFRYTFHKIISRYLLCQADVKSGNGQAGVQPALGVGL

[5] = target: D(1B) dopamine receptor (Homo sapiens, UniProt P21918); assay: Displacement of [3H]SCH23390 from human recombinant dopamine D5 receptor expressed in HEK293 cells by liquid scintillation counting analysis; format: cell-based
Sequence of D(1B) dopamine receptor (P21918 whole entry): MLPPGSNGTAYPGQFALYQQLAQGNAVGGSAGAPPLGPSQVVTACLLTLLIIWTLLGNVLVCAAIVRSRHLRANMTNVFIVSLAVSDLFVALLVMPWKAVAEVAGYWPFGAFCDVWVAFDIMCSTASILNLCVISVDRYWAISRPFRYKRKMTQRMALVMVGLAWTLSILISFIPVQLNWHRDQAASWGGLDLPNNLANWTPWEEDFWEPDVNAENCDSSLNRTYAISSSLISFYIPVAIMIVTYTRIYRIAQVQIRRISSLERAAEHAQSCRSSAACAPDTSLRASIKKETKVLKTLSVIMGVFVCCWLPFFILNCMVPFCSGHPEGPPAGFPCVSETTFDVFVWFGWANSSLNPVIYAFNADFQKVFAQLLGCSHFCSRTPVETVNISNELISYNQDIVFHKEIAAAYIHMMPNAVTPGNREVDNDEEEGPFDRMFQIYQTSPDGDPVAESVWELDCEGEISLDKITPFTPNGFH

[6] = species: Homo sapiens; assay: Selectivity index, ratio of Ki for human recombinant dopamine D3 receptor to Ki for human recombinant adenosine A3 receptor
[7] = target: Histamine H3 receptor (Homo sapiens, UniProt Q9Y5N1); assay: Displacement of [3H] N-alpha methylhistamine from human recombinant histamine H3 receptor expressed in HEK293 cells measured after 90 mins; format: cell-based
Sequence of Histamine H3 receptor (Q9Y5N1 whole entry): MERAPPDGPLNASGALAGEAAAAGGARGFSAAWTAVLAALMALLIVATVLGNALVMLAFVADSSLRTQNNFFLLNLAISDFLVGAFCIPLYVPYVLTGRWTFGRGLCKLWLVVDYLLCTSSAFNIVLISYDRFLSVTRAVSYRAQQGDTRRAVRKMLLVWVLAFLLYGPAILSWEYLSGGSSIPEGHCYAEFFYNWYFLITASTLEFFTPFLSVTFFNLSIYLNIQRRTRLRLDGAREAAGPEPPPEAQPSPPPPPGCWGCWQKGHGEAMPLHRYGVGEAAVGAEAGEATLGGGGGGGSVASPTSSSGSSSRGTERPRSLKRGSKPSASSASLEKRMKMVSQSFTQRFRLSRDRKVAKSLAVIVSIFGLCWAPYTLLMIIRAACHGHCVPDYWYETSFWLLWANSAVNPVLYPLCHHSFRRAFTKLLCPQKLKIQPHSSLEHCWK

[8] = species: Homo sapiens; assay: Selectivity index, ratio of Ki for human recombinant adenosine A2B receptor to Ki for human recombinant histamine H3 receptor
[9] = system: Rattus norvegicus; assay: Antiparkinson's activity in ip dosed L-DOPA induced dyskinesia Sprague-Dawley rat model assessed as reduction in dyskinesia by measuring abnormal involuntary movement upto 21 days; format: functional, organism-based; conditions: dose 0.1-1 mg/kg, time day <=21
[10] = species: Homo sapiens; assay: Selectivity index, ratio of Ki for human recombinant dopamine D2S receptor to Ki for human recombinant adenosine A3 receptor
[11] = species: Homo sapiens; assay: Selectivity index, ratio of Ki for human recombinant dopamine D3 receptor to Ki for human recombinant adenosine A2A receptor
[12] = species: Homo sapiens; assay: Selectivity index, ratio of Ki for human recombinant adenosine A2A receptor to Ki for human recombinant histamine H3 receptor
[13] = species: Homo sapiens; assay: Selectivity index, ratio of Ki for human recombinant dopamine D3 receptor to Ki for human recombinant dopamine D2S receptor
[14] = species: Homo sapiens; assay: Selectivity index, ratio of Ki for human recombinant adenosine A1 receptor to Ki for human recombinant histamine H3 receptor
[15] = species: Homo sapiens; assay: Selectivity index, ratio of Ki for human recombinant dopamine D3 receptor to Ki for human recombinant histamine H3 receptor
[16] = species: Homo sapiens; assay: Selectivity index, ratio of Ki for human recombinant adenosine A3 receptor to Ki for human recombinant histamine H3 receptor
[17] = target: Histamine H4 receptor (Homo sapiens, UniProt Q9H3N8); assay: Displacement of [3H]histamine from human recombinant histamine H4 receptor expressed in sf9 cells by liquid scintillation counting analysis
Sequence of Histamine H4 receptor (Q9H3N8 whole entry): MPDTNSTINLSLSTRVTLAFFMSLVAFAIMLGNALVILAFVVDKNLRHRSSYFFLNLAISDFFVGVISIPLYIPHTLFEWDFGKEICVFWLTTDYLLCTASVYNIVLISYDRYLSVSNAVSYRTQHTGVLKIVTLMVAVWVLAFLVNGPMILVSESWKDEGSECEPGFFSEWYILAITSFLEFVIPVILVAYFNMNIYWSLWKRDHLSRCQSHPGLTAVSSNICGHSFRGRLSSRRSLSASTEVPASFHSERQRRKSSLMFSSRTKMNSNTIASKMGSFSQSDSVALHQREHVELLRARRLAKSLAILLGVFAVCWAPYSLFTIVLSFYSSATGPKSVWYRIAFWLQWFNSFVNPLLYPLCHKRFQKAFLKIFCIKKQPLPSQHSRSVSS

[18] = species: Homo sapiens; assay: Selectivity index, ratio of Ki for human recombinant dopamine D3 receptor to Ki for human recombinant adenosine A2B receptor
[19] = target: T1, Adenosine receptor A2a; assay: […] activity at human recombinant adenosine A2A receptor expressed in CHO cells assessed as inhibition of NECA-induced cAMP accumulation incubated for 20 mins by radioligand competition binding assay; format: functional, cell-based
[20] = species: Homo sapiens; assay: Selectivity index, ratio of Ki for human recombinant adenosine A2B receptor to Ki for human recombinant adenosine A1 receptor
[21] = species: Homo sapiens; assay: Selectivity index, ratio of Ki for human recombinant adenosine A3 receptor to Ki for human recombinant adenosine A2B receptor
[22] = species: Homo sapiens; assay: Selectivity index, ratio of Ki for human recombinant dopamine D2S receptor to Ki for human recombinant adenosine A2A receptor
[23] = species: Homo sapiens; assay: Selectivity index, ratio of Ki for human recombinant adenosine A2B receptor to Ki for human recombinant adenosine A2A receptor
[24] = target: MAO-B (Homo sapiens, UniProt P27338); assay: Inhibition of human recombinant MAO-B using kynuramine as substrate at 10 uM measured for 30 mins by spectrophotometric analysis; conditions: probe kynuramine
Sequence of MAO-B (P27338 whole entry): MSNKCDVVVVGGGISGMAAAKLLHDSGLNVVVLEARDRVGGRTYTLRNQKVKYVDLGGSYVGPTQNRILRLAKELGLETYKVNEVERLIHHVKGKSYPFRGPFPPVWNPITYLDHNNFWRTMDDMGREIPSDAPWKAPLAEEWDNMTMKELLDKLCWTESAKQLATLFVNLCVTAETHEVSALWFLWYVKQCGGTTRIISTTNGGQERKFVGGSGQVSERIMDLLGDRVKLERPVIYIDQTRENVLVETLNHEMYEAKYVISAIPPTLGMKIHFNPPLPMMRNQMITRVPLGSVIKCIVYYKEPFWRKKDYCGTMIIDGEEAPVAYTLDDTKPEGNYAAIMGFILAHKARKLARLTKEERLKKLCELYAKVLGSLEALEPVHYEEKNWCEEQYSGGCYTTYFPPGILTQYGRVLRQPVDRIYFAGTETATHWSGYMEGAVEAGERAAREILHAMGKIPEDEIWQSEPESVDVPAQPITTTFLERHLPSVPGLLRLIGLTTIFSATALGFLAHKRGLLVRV

[25] = target: Histamine H1 receptor (Homo sapiens, UniProt P35367); assay: Displacement of [3H]pyrilamine from human recombinant histamine H1 receptor expressed in CHO cells by liquid scintillation counting analysis; format: cell-based
Sequence of Histamine H1 receptor (P35367 whole entry): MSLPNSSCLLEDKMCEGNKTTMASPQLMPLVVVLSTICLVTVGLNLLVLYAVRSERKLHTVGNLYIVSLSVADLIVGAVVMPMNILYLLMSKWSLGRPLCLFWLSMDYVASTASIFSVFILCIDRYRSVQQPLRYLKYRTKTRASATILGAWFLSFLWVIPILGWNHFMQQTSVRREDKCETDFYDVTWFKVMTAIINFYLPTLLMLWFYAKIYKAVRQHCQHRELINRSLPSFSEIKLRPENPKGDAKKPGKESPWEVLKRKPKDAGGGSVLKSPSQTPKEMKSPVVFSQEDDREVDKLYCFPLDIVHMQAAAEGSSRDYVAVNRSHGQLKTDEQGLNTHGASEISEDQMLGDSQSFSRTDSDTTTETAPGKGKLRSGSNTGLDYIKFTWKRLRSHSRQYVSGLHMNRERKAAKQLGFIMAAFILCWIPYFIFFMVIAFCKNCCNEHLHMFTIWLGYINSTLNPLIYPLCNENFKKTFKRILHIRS

[26] = species: Homo sapiens; assay: Selectivity index, ratio of Ki for human recombinant dopamine D2S receptor to Ki for human recombinant adenosine A2B receptor
[27] = species: Homo sapiens; assay: Selectivity index, ratio of Ki for human recombinant dopamine D2S receptor to Ki for human recombinant histamine H3 receptor
[28] = target: D(3) dopamine receptor (Homo sapiens, UniProt P35462); assay: Displacement of [3H]spiperone from human recombinant dopamine D3 receptor expressed in CHO cells by liquid scintillation counting analysis; format: cell-based
Sequence of D(3) dopamine receptor (P35462 whole entry): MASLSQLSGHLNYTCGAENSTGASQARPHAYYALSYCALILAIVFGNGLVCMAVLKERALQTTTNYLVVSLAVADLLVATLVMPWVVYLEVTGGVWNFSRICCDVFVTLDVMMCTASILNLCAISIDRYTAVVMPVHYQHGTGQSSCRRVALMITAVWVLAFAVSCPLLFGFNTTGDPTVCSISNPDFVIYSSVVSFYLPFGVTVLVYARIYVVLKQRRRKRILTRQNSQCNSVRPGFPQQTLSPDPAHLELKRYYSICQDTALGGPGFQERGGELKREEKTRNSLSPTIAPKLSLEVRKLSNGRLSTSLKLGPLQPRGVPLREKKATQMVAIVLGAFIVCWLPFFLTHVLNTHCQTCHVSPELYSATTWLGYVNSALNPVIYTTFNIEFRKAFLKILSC

[29] = Displacement of [3H]SCH23390 from human recombinant dopamine D1 receptor expressed in HEK293 cells by liquid scintillation counting analysis; format: cell-based
[30] = species: Homo sapiens; assay: Selectivity index, ratio of Ki for human recombinant dopamine D3 receptor to Ki for human recombinant adenosine A1 receptor
[31] = target: D(2) dopamine receptor (Homo sapiens, UniProt P14416); assay: Displacement of [3H]spiperone from human recombinant dopamine D2S receptor expressed in CHO cells by liquid scintillation counting analysis; format: cell-based
Sequence of D(2) dopamine receptor (P14416 whole entry): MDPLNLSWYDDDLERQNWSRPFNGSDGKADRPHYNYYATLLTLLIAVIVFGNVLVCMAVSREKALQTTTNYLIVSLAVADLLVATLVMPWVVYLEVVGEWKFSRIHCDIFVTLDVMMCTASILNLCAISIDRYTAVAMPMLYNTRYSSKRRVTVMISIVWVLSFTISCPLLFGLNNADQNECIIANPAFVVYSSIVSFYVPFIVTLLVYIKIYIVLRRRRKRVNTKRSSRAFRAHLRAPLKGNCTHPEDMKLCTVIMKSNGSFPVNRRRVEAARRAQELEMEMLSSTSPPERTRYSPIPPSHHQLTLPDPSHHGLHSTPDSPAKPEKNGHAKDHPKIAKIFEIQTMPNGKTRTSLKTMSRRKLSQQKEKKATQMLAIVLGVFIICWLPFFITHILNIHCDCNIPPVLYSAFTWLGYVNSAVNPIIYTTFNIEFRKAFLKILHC

[32] = species: Homo sapiens; assay: Selectivity index, ratio of Ki for human recombinant adenosine A2A receptor to Ki for human recombinant adenosine A1 receptor
[33] = target: Amine oxidase [flavin-containing] B (Homo sapiens, UniProt P27338); assay: Inhibition of human recombinant MAO-B using kynuramine as substrate measured for 30 mins by spectrophotometric analysis
Sequence of Amine oxidase [flavin-containing] B (P27338 whole entry): as the sequence (P27338 whole entry) above

[34] = species: Homo sapiens; assay: Selectivity index, ratio of Ki for human recombinant adenosine A3 receptor to Ki for human recombinant adenosine A2A receptor
[35] = target: MAO-A (Homo sapiens, UniProt P21397); assay: Inhibition of human recombinant MAO-A using kynuramine as substrate at 10 uM measured for 30 mins by spectrophotometric analysis; conditions: probe kynuramine
Sequence of MAO-A (P21397 whole entry): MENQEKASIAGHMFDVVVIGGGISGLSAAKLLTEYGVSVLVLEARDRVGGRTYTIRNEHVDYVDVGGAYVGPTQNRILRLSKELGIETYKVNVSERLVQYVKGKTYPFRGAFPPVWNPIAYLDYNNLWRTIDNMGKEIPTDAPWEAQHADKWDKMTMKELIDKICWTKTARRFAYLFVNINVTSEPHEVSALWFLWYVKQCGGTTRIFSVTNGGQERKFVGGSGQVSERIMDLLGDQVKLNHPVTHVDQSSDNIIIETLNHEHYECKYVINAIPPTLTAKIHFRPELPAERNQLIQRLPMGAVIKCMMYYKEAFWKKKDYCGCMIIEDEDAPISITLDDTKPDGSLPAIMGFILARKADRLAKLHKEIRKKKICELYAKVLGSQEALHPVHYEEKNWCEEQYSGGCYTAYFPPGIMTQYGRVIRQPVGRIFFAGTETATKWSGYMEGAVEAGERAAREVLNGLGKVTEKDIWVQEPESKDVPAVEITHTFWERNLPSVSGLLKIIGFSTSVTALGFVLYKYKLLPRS

[36] = target: Adenosine receptors; A1 & A3 (Homo sapiens) (UniProt P30542+P0DMS8); assay: Selectivity index, ratio of Ki for human recombinant adenosine A3 receptor to Ki for human recombinant adenosine A1 receptor; format: protein assay
[37] = species: Homo sapiens; assay: Selectivity index, ratio of Ki for human recombinant dopamine D2S receptor to Ki for human recombinant adenosine A1 receptor
[38] = target: T1, Adenosine receptor A2a; assay: Displacement of [3H]MSX-2 from human recombinant adenosine A2A receptor expressed in CHO cells at 1 uM by liquid scintillation counting analysis; format: cell-based; conditions: filed as antagonist
[39] = target: T5, Adenosine receptor A3 (Homo sapiens) (UniProt P0DMS8); assay: Displacement of [3H]PSB-11 from human recombinant adenosine A3 receptor expressed in CHO cells at 1 uM by liquid scintillation counting analysis; format: cell-based
T5 sequence (whole entry): T3 sequence (P0DMS8 whole entry)

[40] = target: T6, Adenosine receptor A2b (Homo sapiens) (UniProt P29275); assay: Displacement of [3H]PSB-603 from human recombinant adenosine A2B receptor expressed in CHO cells at 1 uM by liquid scintillation counting analysis; format: cell-based
T6 sequence (whole entry): T4 sequence (P29275 whole entry)

[41] = system: SH-SY5Y; assay: Cytotoxicity against human SH-SY5Y cells assessed as remaining cell viability at 1000 nM incubated for 24 hrs; format: functional

O=C(c1ccc(OCCCc2cnc[nH]2)cc1)C1CC1 [CIPROXIFAN] gave a Ki [1] greater than 1000 nM, a Ki [2] greater than 1000 nM and a Ki [3] greater than 1000 nM. The Ki [4] was greater than 1000 nM.

In the case of Nc1nc(-c2ccccc2)c2c(n1)-c1cc(OCCCN3CCCC3)ccc1C2, the Ki [5] is reported as greater than 1000 nM, the Ratio Ki [6] is reported as 2 and the Ki [7] is reported as 11 nM. For the same molecule, the Ratio Ki [8] was 3, the Ki [1] was 7.25 nM and the Activity [9] was “Dose-Dependent Effect”. For the same molecule, the Ratio Ki [10] was 8, the Ratio Ki [11] was 40 and the Ratio Ki [12] was 0.66. The Ki [2] was 11.5 nM, the Ratio Ki [13] was 0.23 and the Ratio Ki [14] was 1. For the same molecule, the Ratio Ki [15] was 26, the Ratio Ki [16] was 14 and the Ki [17] was greater than 10000 nM. The Ratio Ki [18] was 8, the Activity [19] was “inactive” and the Ki [3] was 150 nM. For the same molecule, the Ratio Ki [20] was 3, the Ratio Ki [21] was 4 and the Ratio Ki [22] was 172. The Ratio Ki [23] was 5, the inhibition at 0.5 h, 10 µM [24] was 57% and the Ki [25] was greater than 1000 nM. It also gave a Ratio Ki [26] of 34, a Ratio Ki [27] of 113 and a Ki [28] of 290 nM. It also gave a Ki [29] greater than 1000 nM, a Ratio Ki [30] of 25 and a Ki [31] of 1250 nM. The Ratio Ki [32] was 0.63, the IC50 [33] was greater than 1000 nM and the Ratio Ki [34] was 21. For the same molecule, the inhibition at 0.5 h, 10 µM [35] was 7.4%, the Ratio Ki [36] was 13 and the Ki [4] was 36.9 nM. The Ratio Ki [37] was 108.

Work on Nc1nc(-c2ccccc2)c2c(n1)-c1cc(OCCCN3CCCC3)ccc1C2=O yielded a Ki [7] of 17 nM, a Ki [1] of 6.24 nM and a Ki [2] of 12.6 nM. For the same molecule, the Ki [3] was 199 nM and the Ki [4] was 47.5 nM.

Nc1nc(-c2ccccc2)c2c(n1)-c1ccc(OCCCN3CCCC3)cc1C2 showed an inhibition [38] of 40%, a Ki [7] of 11 nM and a Ki [1] greater than 1000 nM. It also gave an inhibition [39] of 35%, a Ki [2] of 828 nM and an inhibition [40] of 25%. The Ki [3] was greater than 1000 nM, the Activity [41] was greater than 75% and the Ki [4] was greater than 1000 nM.
